Data from patent US12350266B2, “FGFR2 inhibitors for the treatment of cholangiocarcinoma” (Janssen Pharmaceutica NV, priority 2017, dated 2025).

How the values were obtained:
[1] = tested on: FGFR-aberrant cholangiocarcinoma
Text: Sparse samples were collected in Parts 3 and 4.

[2] = compared with published Part 1 results (Tabernero 2015)
[3] = tested on: patients with FGFR-aberrant cholangiocarcinoma; test: Clinical trial NCT01703481: safety; format: in vivo, human; conditions: compared with published Part 1 results (Tabernero 2015)
Method: Eleven patients with FGFR-aberrant cholangiocarcinoma were treated at 9 mg QD (n=1, Part 3) or 10 mg intermittent (n=10, Part 4).

[4] = tested on: advanced cholangiocarcinoma with FGFR alterations; conditions: 11 subjects dosed with 8 mg qd; snapshot 20 Mar. 2018
Method: (§1) LUC2001 is an open-label, multicenter, phase 2a study including advanced cholangiocarcinoma subjects with FGFR alterations, based on FoundationOne testing, who failed at least 1 prior systemic treatment. The primary endpoint is objective response rate (ORR; by Response Evaluation Criteria in Solid Tumors (RECIST) version 1.1). The secondary endpoints are disease control rate (DCR), safety and pharmacokinetics. Disease is evaluated every 8 weeks until disease progression (PD). […] The dose of the drug may be modified, delayed, or terminated based on guidelines in the protocol.

[5] = tested on: advanced cholangiocarcinoma patients; test: LUC2001 (NCT02699606) phase 2a study: safety (adverse events)
Method: as §1

[6] = 8 mg qd, most common AEs (>30%)

COc1cc(OC)cc(N(CCNC(C)C)c2ccc3ncc(-c4cnn(C)c4)nc3c2)c1 [erdafitinib, N-(3,5-dimethoxy-phenyl)-N′-(1-methylethyl)-N-[3-(1-methyl-1H-pyrazol-4-yl)quinoxalin-6-yl]ethane-1,2-diamine]
partial responses, fusion FGFR2-BICC1 ([1]; number of patients (n)): 1
partial responses, fusion FGFR2-CCAR1 ([1]; number of patients (n)): 1
partial responses, patients with FGFR translocations ([1]; number of patients among the 3 partial responses): 2
PK data [2]: consistent with those from the previously published results from Part 1 of this study
Safety data [3]: consistent with those from the previously published results from Part 1 of this study
PD (disease progression), number of subjects [4]: 2
AE diarrhea (subjects/dosed) [5, 6]: 4/11
AE dry mouth (subjects/dosed) [5, 6]: 7/11
AE hyperphosphatemia (subjects/dosed) [5, 6]: 8/11
AE nail disorder (subjects/dosed) [5, 6]: 4/11
AE palmar-plantar erythrodysaesthesia syndrome (subjects/dosed) [5, 6]: 4/11
AE stomatitis (subjects/dosed) [5, 6]: 7/11
AE leading to treatment discontinuation or death ([5]; 11 subjects, 8 mg qd): no AE led to treatment discontinuation or death
subjects who experienced AEs ([5]; 11 subjects, 8 mg qd): All subjects experienced AEs
subjects with AEs leading to drug interruption ([5]; 11 subjects, 8 mg qd): all had AEs leading to drug interruption
safety profile (conclusion) ([5]; patients with FGFR-aberrant advanced cholangiocarcinoma): tolerable safety profile
